We go through 15 compounds from patent US12295936B2, “Immunomodulating urea azalides” (Zoetis Services LLC, priority 2020, dated 2025).

A value given as a limit tells only on which side of the number the result lay.

The subject of one test is BRD pathogens, M. haemolytica and P. multocida. As to the kind of experiment: MIC screening panel of BRD pathogens (antibacterial / non-antibacterial). Conditions: Table J, Formula (1-A1b) compounds.
“1-((2S,3R,4S,6R)-2-(((2R,3S,4R,5R,8R,10R,11R,12S,13S,14R)-2-ethyl-3,4,10-trihydroxy-13-(((2R,4R,5S,6S)-5-hydroxy-4-methoxy-4,6-dimethyl-5-((4-(trifluoromethyl)piperazin-1-yl)methyl)tetrahydro-2H-pyran-2-yl)oxy)-3,5,8,10,12,14-hexamethyl-15-oxo-1-oxa-6-azacyclopentadecan-11-yl)oxy)-3-hydroxy-6-methyltetrahydro-2H-pyran-4-yl)-1,3-dimethyl-3-phenylurea [Example J-14]”: the “MIC ≤64 μg/mL for at least one of the bacterial strains (flag * at Ex #)” value is listed as “J-14* (*MIC ≤64 μg/mL for at least one of the bacterial strains)”.

Staying with this test, now noted: read-out: antibacterial / non-antibacterial (MIC for the BRD pathogens).
On to `CC[C@H]1OC(=O)[C@H](C)[C@@H](O)[C@H](C)[C@@H](O[C@@H]2O[C@H](C)C[C@H](N(C)C(=O)Nc3ncccn3)[C@H]2O)[C@](C)(O)C[C@@H](C)CN[C@H](C)[C@@H](O)[C@]1(C)O` [Example A-1, 1-((2S,3R,4S,6R)-2-(((2R,3S,4R,5R,8R,10R,11R,12S,13S,14R)-2-ethyl-3,4,10,13-tetrahydroxy-3,5,8,10,12,14-hexamethyl-15-oxo-1-oxa-6-azacyclopentadecan-11-yl)oxy)-3-hydroxy-6-methyltetrahydro-2H-pyran-4-yl)-1-methyl-3-(pyrimidin-2-yl)urea], for which the MIC is above 64 µg/mL. Turning to `CC[C@H]1OC(=O)[C@H](C)[C@@H](O)[C@H](C)[C@@H](O[C@@H]2O[C@H](C)C[C@H](N(C)C(=O)Nc3cnccn3)[C@H]2O)[C@](C)(O)C[C@@H](C)CN[C@H](C)[C@@H](O)[C@]1(C)O` [Example A-2, 1-((2S,3R,4S,6R)-2-(((2R,3S,4R,5R,8R,10R,11R,12S,13S,14R)-2-ethyl-3,4,10,13-tetrahydroxy-3,5,8,10,12,14-hexamethyl-15-oxo-1-oxa-6-azacyclopentadecan-11-yl)oxy)-3-hydroxy-6-methyltetrahydro-2H-pyran-4-yl)-1-methyl-3-(pyrazin-2-yl)urea], the MIC was above 64 µg/mL. Same read-out and setting: the figure for `CC[C@H]1OC(=O)[C@H](C)[C@@H](O)[C@H](C)[C@@H](O[C@@H]2O[C@H](C)C[C@H](N(C)C(=O)Nc3ccccn3)[C@H]2O)[C@](C)(O)C[C@@H](C)CN[C@H](C)[C@@H](O)[C@]1(C)O` [Example A-3, 1-((2S,3R,4S,6R)-2-(((2R,3S,4R,5R,8R,10R,11R,12S,13S,14R)-2-ethyl-3,4,10,13-tetrahydroxy-3,5,8,10,12,14-hexamethyl-15-oxo-1-oxa-6-azacyclopentadecan-11-yl)oxy)-3-hydroxy-6-methyltetrahydro-2H-pyran-4-yl)-1-methyl-3-(pyridin-2-yl)urea] is above 64 µg/mL. The same measure, in the same setting: the same measure for `CC[C@H]1OC(=O)[C@H](C)[C@@H](O)[C@H](C)[C@@H](O[C@@H]2O[C@H](C)C[C@H](N(C)C(=O)Nc3cccnc3)[C@H]2O)[C@](C)(O)C[C@@H](C)CN[C@H](C)[C@@H](O)[C@]1(C)O` [Example A-4, 1-((2S,3R,4S,6R)-2-(((2R,3S,4R,5R,8R,10R,11R,12S,13S,14R)-2-ethyl-3,4,10,13-tetrahydroxy-3,5,8,10,12,14-hexamethyl-15-oxo-1-oxa-6-azacyclopentadecan-11-yl)oxy)-3-hydroxy-6-methyltetrahydro-2H-pyran-4-yl)-1-methyl-3-(pyridin-3-yl)urea]: above 64 µg/mL. On the same count and under the same terms, the figure for `CC[C@H]1OC(=O)[C@H](C)[C@@H](O)[C@H](C)[C@@H](O[C@@H]2O[C@H](C)C[C@H](N(C)C(=O)Nc3cnn(C)c3)[C@H]2O)[C@](C)(O)C[C@@H](C)CN[C@H](C)[C@@H](O)[C@]1(C)O` [Example A-6, 1-((2S,3R,4S,6R)-2-(((2R,3S,4R,5R,8R,10R,11R,12S,13S,14R)-2-ethyl-3,4,10,13-tetrahydroxy-3,5,8,10,12,14-hexamethyl-15-oxo-1-oxa-6-azacyclopentadecan-11-yl)oxy)-3-hydroxy-6-methyltetrahydro-2H-pyran-4-yl)-1-methyl-3-(1-methyl-1H-pyrazol-4-yl)urea] is above 64 µg/mL; for `CC[C@H]1OC(=O)[C@H](C)[C@@H](O)[C@H](C)[C@@H](O[C@@H]2O[C@H](C)C[C@H](N(C)C(=O)Nc3cc(C)n(C)n3)[C@H]2O)[C@](C)(O)C[C@@H](C)CN[C@H](C)[C@@H](O)[C@]1(C)O` [Example A-7, 3-(1,5-dimethyl-1H-pyrazol-3-yl)-1-((2S,3R,4S,6R)-2-(((2R,3S,4R,5R,8R,10R,11R,12S,13S,14R)-2-ethyl-3,4,10,13-tetrahydroxy-3,5,8,10,12,14-hexamethyl-15-oxo-1-oxa-6-azacyclopentadecan-11-yl)oxy)-3-hydroxy-6-methyltetrahydro-2H-pyran-4-yl)-1-methylurea] it is above 64 µg/mL; for `CC[C@H]1OC(=O)[C@H](C)[C@@H](O)[C@H](C)[C@@H](O[C@@H]2O[C@H](C)C[C@H](N(C)C(=O)Nc3ccc(C#N)cc3)[C@H]2O)[C@](C)(O)C[C@@H](C)CN[C@H](C)[C@@H](O)[C@]1(C)O` [Example A-9, 3-(4-cyanophenyl)-1-((2S,3R,4S,6R)-2-(((2R,3S,4R,5R,8R,10R,11R,12S,13S,14R)-2-ethyl-3,4,10,13-tetrahydroxy-3,5,8,10,12,14-hexamethyl-15-oxo-1-oxa-6-azacyclopentadecan-11-yl)oxy)-3-hydroxy-6-methyltetrahydro-2H-pyran-4-yl)-1-methylurea] it is above 64 µg/mL.

Take `CC[C@H]1OC(=O)[C@H](C)[C@@H](O)[C@H](C)[C@@H](O[C@@H]2O[C@H](C)C[C@H](N(C)C(=O)Nc3cccc(C(F)(F)F)c3)[C@H]2O)[C@](C)(O)C[C@@H](C)CN[C@H](C)[C@@H](O)[C@]1(C)O` [Example A-10, 1-((2S,3R,4S,6R)-2-(((2R,3S,4R,5R,8R,10R,11R,12S,13S,14R)-2-ethyl-3,4,10,13-tetrahydroxy-3,5,8,10,12,14-hexamethyl-15-oxo-1-oxa-6-azacyclopentadecan-11-yl)oxy)-3-hydroxy-6-methyltetrahydro-2H-pyran-4-yl)-1-methyl-3-(3-(trifluoromethyl)phenyl)urea]: the MIC was above 64 µg/mL. Consider `CC[C@H]1OC(=O)[C@H](C)[C@@H](O)[C@H](C)[C@@H](O[C@@H]2O[C@H](C)C[C@H](N(C)C(=O)Nc3cccc(C#N)c3)[C@H]2O)[C@](C)(O)C[C@@H](C)CN[C@H](C)[C@@H](O)[C@]1(C)O` [Example A-11, 3-(3-cyanophenyl)-1-((2S,3R,4S,6R)-2-(((2R,3S,4R,5R,8R,10R,11R,12S,13S,14R)-2-ethyl-3,4,10,13-tetrahydroxy-3,5,8,10,12,14-hexamethyl-15-oxo-1-oxa-6-azacyclopentadecan-11-yl)oxy)-3-hydroxy-6-methyltetrahydro-2H-pyran-4-yl)-1-methylurea], for which the MIC is above 64 µg/mL.

As to `CC[C@H]1OC(=O)[C@H](C)[C@@H](O)[C@H](C)[C@@H](O[C@@H]2O[C@H](C)C[C@H](N(C)C(=O)Nc3ccccc3Cl)[C@H]2O)[C@](C)(O)C[C@@H](C)CN[C@H](C)[C@@H](O)[C@]1(C)O` [Example A-12, 3-(2-chlorophenyl)-1-((2S,3R,4S,6R)-2-(((2R,3S,4R,5R,8R,10R,11R,12S,13S,14R)-2-ethyl-3,4,10,13-tetrahydroxy-3,5,8,10,12,14-hexamethyl-15-oxo-1-oxa-6-azacyclopentadecan-11-yl)oxy)-3-hydroxy-6-methyltetrahydro-2H-pyran-4-yl)-1-methylurea], the MIC is above 64 µg/mL. Regarding `CC[C@H]1OC(=O)[C@H](C)[C@@H](O)[C@H](C)[C@@H](O[C@@H]2O[C@H](C)C[C@H](N(C)C(=O)Nc3ccccc3C)[C@H]2O)[C@](C)(O)C[C@@H](C)CN[C@H](C)[C@@H](O)[C@]1(C)O` [Example A-14, 1-((2S,3R,4S,6R)-2-(((2R,3S,4R,5R,8R,10R,11R,12S,13S,14R)-2-ethyl-3,4,10,13-tetrahydroxy-3,5,8,10,12,14-hexamethyl-15-oxo-1-oxa-6-azacyclopentadecan-11-yl)oxy)-3-hydroxy-6-methyltetrahydro-2H-pyran-4-yl)-1-methyl-3-(o-tolyl)urea], the MIC is above 64 µg/mL. The same measure, in the same setting: the same measure for `CC[C@H]1OC(=O)[C@H](C)[C@@H](O)[C@H](C)[C@@H](O[C@@H]2O[C@H](C)C[C@H](N(C)C(=O)Nc3ccc(C(F)(F)F)cc3)[C@H]2O)[C@](C)(O)C[C@@H](C)CN[C@H](C)[C@@H](O)[C@]1(C)O` [Example A-15, 1-((2S,3R,4S,6R)-2-(((2R,3S,4R,5R,8R,10R,11R,12S,13S,14R)-2-ethyl-3,4,10,13-tetrahydroxy-3,5,8,10,12,14-hexamethyl-15-oxo-1-oxa-6-azacyclopentadecan-11-yl)oxy)-3-hydroxy-6-methyltetrahydro-2H-pyran-4-yl)-1-methyl-3-(4-(trifluoromethyl)phenyl)urea]: above 64 µg/mL.

Consider `CC[C@H]1OC(=O)[C@H](C)[C@@H](O)[C@H](C)[C@@H](O[C@@H]2O[C@H](C)C[C@H](N(C)C(=O)Nc3ccccc3C(F)(F)F)[C@H]2O)[C@](C)(O)C[C@@H](C)CN[C@H](C)[C@@H](O)[C@]1(C)O` [Example A-16, 1-((2S,3R,4S,6R)-2-(((2R,3S,4R,5R,8R,10R,11R,12S,13S,14R)-2-ethyl-3,4,10,13-tetrahydroxy-3,5,8,10,12,14-hexamethyl-15-oxo-1-oxa-6-azacyclopentadecan-11-yl)oxy)-3-hydroxy-6-methyltetrahydro-2H-pyran-4-yl)-1-methyl-3-(2-(trifluoromethyl)phenyl)urea], for which the MIC is above 64 µg/mL.

On to `CC[C@H]1OC(=O)[C@H](C)[C@@H](O)[C@H](C)[C@@H](O[C@@H]2O[C@H](C)C[C@H](N(C)C(=O)Nc3ccccc3F)[C@H]2O)[C@](C)(O)C[C@@H](C)CN[C@H](C)[C@@H](O)[C@]1(C)O` [Example A-17, 1-((2S,3R,4S,6R)-2-(((2R,3S,4R,5R,8R,10R,11R,12S,13S,14R)-2-ethyl-3,4,10,13-tetrahydroxy-3,5,8,10,12,14-hexamethyl-15-oxo-1-oxa-6-azacyclopentadecan-11-yl)oxy)-3-hydroxy-6-methyltetrahydro-2H-pyran-4-yl)-3-(2-fluorophenyl)-1-methylurea], for which the MIC is above 64 µg/mL.
